1 compound from article PMC5218480 (PLoS ONE, 2017) can be followed below.

The assay has as its system MV-4-11 cells. Briefly: Gene expression microarray analysis (Affymetrix PrimeView) and GSEA. In kind it is cell-based, human. Details: RFU PODN (11730768_x_at) / Fold change /veh PODN (11730768_x_at) / RFU LINC00158 (11744669_a_at) / Fold change /veh LINC00158 (11744669_a_at) / RFU DUSP10 (11751237_a_at) / Fold change /veh DUSP10 (11751237_a_at) / RFU ID3 (11757404_x_at) / Fold change /veh ID3 (11757404_x_at) / RFU PLEKHG5 (11737974_s_at) / Fold change /veh PLEKHG5 (11737974_s_at) / RFU LRRC4B (11730491_at) / Fold change /veh LRRC4B (11730491_at) / RFU GIMAP4 (11747438_a_at) / Fold change /veh GIMAP4 (11747438_a_at) / RFU KRT8 (11758183_x_at) / Fold change /veh KRT8 (11758183_x_at) / RFU CNN1 (11734310_a_at) / Fold change /veh CNN1 (11734310_a_at) / RFU VPS37D (11726825_at) / Fold change /veh VPS37D (11726825_at) / RFU C10orf10 (11716522_x_at) / Fold change /veh C10orf10 (11716522_x_at) / RFU KIR2DL2 /// KIR2DL4 /// KIR2DL5A /// KIR2DL5B /// KIR2DS1 /// KIR2DS2 /// KIR2DS3 /// KIR2DS4 /// KIR3DL3 /// KIR3DL3 /// KIR3DS1 (11738374_at) / Fold change /veh KIR2DL2 /// KIR2DL4 /// KIR2DL5A /// KIR2DL5B /// KIR2DS1 /// KIR2DS2 /// KIR2DS3 /// KIR2DS4 /// KIR3DL3 /// KIR3DL3 /// KIR3DS1 (11738374_at) / RFU C1QL1 (11718748_at) / Fold change /veh C1QL1 (11718748_at) / RFU TMPRSS4 (11747572_a_at) / Fold change /veh TMPRSS4 (11747572_a_at) / RFU HAMP (11756126_x_at) / Fold change /veh HAMP (11756126_x_at) / RFU RNFT2 (11725882_a_at) / Fold change /veh RNFT2 (11725882_a_at) / RFU NR4A2 (11747474_a_at) / Fold change /veh NR4A2 (11747474_a_at) / RFU ABCC12 (11746883_a_at) / Fold change /veh ABCC12 (11746883_a_at) / RFU TMEM136 (11760407_x_at) / Fold change /veh TMEM136 (11760407_x_at) / RFU CLDN22 /// WWC2 (11732394_at) / Fold change /veh CLDN22 /// WWC2 (11732394_at) / RFU HLA-DPB1 (11760878_x_at) / Fold change /veh HLA-DPB1 (11760878_x_at) / RFU SPINT1 (11716480_a_at) / Fold change /veh SPINT1 (11716480_a_at) / RFU GAP43 (11754022_s_at) / Fold change /veh GAP43 (11754022_s_at) / RFU A4GNT (11735810_at) / Fold change /veh A4GNT (11735810_at) / RFU PRB3 (11715151_x_at) / Fold change /veh PRB3 (11715151_x_at) / RFU TUBB4B (11761932_at) / Fold change /veh TUBB4B (11761932_at) / RFU CAPN14 (11732068_a_at) / Fold change /veh CAPN14 (11732068_a_at) / RFU TMCC2 (11721928_a_at) / Fold change /veh TMCC2 (11721928_a_at) / RFU IRGQ (11745062_a_at) / Fold change /veh IRGQ (11745062_a_at) / RFU FAM174B (11720279_a_at) / Fold change /veh FAM174B (11720279_a_at) / RFU TMPRSS4 (11748680_a_at) / Fold change /veh TMPRSS4 (11748680_a_at) / RFU FAM212B (11763350_a_at) / Fold change /veh FAM212B (11763350_a_at) / RFU PLEKHG5 (11743358_a_at) / Fold change /veh PLEKHG5 (11743358_a_at) / RFU ZSCAN30 (11745921_a_at) / Fold change /veh ZSCAN30 (11745921_a_at) / RFU CMKLR1 (11741424_a_at) / Fold change /veh CMKLR1 (11741424_a_at) / RFU LOC101060620 /// MAPK8IP1 (11723275_at) / Fold change /veh LOC101060620 /// MAPK8IP1 (11723275_at) / RFU SPTSSB (11747773_x_at) / Fold change /veh SPTSSB (11747773_x_at) / RFU PRSS12 (11739890_at) / Fold change /veh PRSS12 (11739890_at) / RFU BIN1 (11741810_x_at) / Fold change /veh BIN1 (11741810_x_at) / RFU WNT11 (11732464_a_at) / Fold change /veh WNT11 (11732464_a_at) / RFU C10orf10 (11716521_a_at) / Fold change /veh C10orf10 (11716521_a_at) / RFU C5orf56 (11738089_at) / Fold change /veh C5orf56 (11738089_at) / RFU CYB561 (11721691_x_at) / Fold change /veh CYB561 (11721691_x_at) / RFU ANKRD19P (11752326_a_at) / Fold change /veh ANKRD19P (11752326_a_at) / RFU OR2T12 /// OR2T33 /// OR2T8 (11738714_s_at) / Fold change /veh OR2T12 /// OR2T33 /// OR2T8 (11738714_s_at) / RFU VCAN (11748164_a_at) / Fold change /veh VCAN (11748164_a_at) / RFU JSRP1 (11732532_at) / Fold change /veh JSRP1 (11732532_at) / RFU KRTAP10-11 (11738290_x_at) / Fold change /veh KRTAP10-11 (11738290_x_at) / RFU MYO3A (11730013_a_at) / Fold change /veh MYO3A (11730013_a_at) / RFU EBF3 (11725865_a_at) / Fold change /veh EBF3 (11725865_a_at) / RFU CAMK2N1 (11719241_x_at) / Fold change /veh CAMK2N1 (11719241_x_at) / RFU C5orf56 (11738088_a_at) / Fold change /veh C5orf56 (11738088_a_at) / RFU OLFML3 (11715873_a_at) / Fold change /veh OLFML3 (11715873_a_at) / RFU LOC100653217 /// NTM (11731650_a_at) / Fold change /veh LOC100653217 /// NTM (11731650_a_at) / RFU MAPK11 (11762145_a_at) / Fold change /veh MAPK11 (11762145_a_at) / RFU FIZ1 (11724087_x_at) / Fold change /veh FIZ1 (11724087_x_at) / RFU OASL (11726364_x_at) / Fold change /veh OASL (11726364_x_at) / RFU SOX15 (11748057_x_at) / Fold change /veh SOX15 (11748057_x_at) / RFU CD79A (11719716_a_at) / Fold change /veh CD79A (11719716_a_at) / RFU HIST1H1D (11736915_at) / Fold change /veh HIST1H1D (11736915_at) / RFU CASKIN2 (11723855_a_at) / Fold change /veh CASKIN2 (11723855_a_at) / RFU LOC730098 (11760151_x_at) / Fold change /veh LOC730098 (11760151_x_at) / RFU OR4N2 (11742367_at) / Fold change /veh OR4N2 (11742367_at) / RFU PRRT2 (11749266_a_at) / Fold change /veh PRRT2 (11749266_a_at) / RFU SNX32 (11753110_a_at) / Fold change /veh SNX32 (11753110_a_at) / RFU CDHR5 (11726645_a_at) / Fold change /veh CDHR5 (11726645_a_at) / RFU RCAN1 (11760418_a_at) / Fold change /veh RCAN1 (11760418_a_at) / RFU FAM167A (11723789_a_at) / Fold change /veh FAM167A (11723789_a_at) / RFU FAM26E (11764081_at) / Fold change /veh FAM26E (11764081_at) / RFU ISYNA1 (11749810_s_at) / Fold change /veh ISYNA1 (11749810_s_at) / RFU ACY1 (11761880_at) / Fold change /veh ACY1 (11761880_at) / RFU 11764098_at / Fold change /veh 11764098_at / RFU SAMD14 (11745864_x_at) / Fold change /veh SAMD14 (11745864_x_at) / RFU NPB (11741838_a_at) / Fold change /veh NPB (11741838_a_at) / RFU TMPRSS6 (11731388_a_at) / Fold change /veh TMPRSS6 (11731388_a_at) / RFU KRTAP10-2 (11738614_at) / Fold change /veh KRTAP10-2 (11738614_at) / RFU ARHGAP8 /// PRR5-ARHGAP8 (11727945_x_at) / Fold change /veh ARHGAP8 /// PRR5-ARHGAP8 (11727945_x_at) / RFU KRTAP5-7 /// NADSYN1 (11734609_at) / Fold change /veh KRTAP5-7 /// NADSYN1 (11734609_at) / RFU RASL12 (11751679_a_at) / Fold change /veh RASL12 (11751679_a_at) / RFU CDKN2B (11736163_a_at) / Fold change /veh CDKN2B (11736163_a_at) / RFU PRF1 (11729649_at) / Fold change /veh PRF1 (11729649_at) / RFU, ZNF638 /// ZNF638-IT1 / Fold change vs veh, ZNF638 /// ZNF638-IT1 / RFU, PANK3 / Fold change vs veh, PANK3 / RFU, SH3YL1 / Fold change vs veh, SH3YL1 / RFU, ZEB2 / Fold change vs veh, ZEB2 / RFU, NRIP1 / Fold change vs veh, NRIP1 / RFU, PTTG1IP / Fold change vs veh, PTTG1IP / RFU, CAPN2 / Fold change vs veh, CAPN2 / RFU, MED14 / Fold change vs veh, MED14 / RFU, SNORA58 / Fold change vs veh, SNORA58 / RFU, C1orf63 / Fold change vs veh, C1orf63 / RFU, LRRFIP1 / Fold change vs veh, LRRFIP1 / RFU, NDUFAF7 / Fold change vs veh, NDUFAF7 / RFU, SLC12A2 / Fold change vs veh, SLC12A2 / RFU, IBTK / Fold change vs veh, IBTK / RFU, ESF1 / Fold change vs veh, ESF1 / Fold change vs veh, TMEM50B / RFU, TAOK1 / Fold change vs veh, TAOK1 / RFU, ACBD3 / Fold change vs veh, ACBD3 / RFU, TMA16 / Fold change vs veh, TMA16 / RFU, RWDD3 / Fold change vs veh, RWDD3 / RFU, BCAT1 / Fold change vs veh, BCAT1 / RFU, EDEM3 / Fold change vs veh, EDEM3 / RFU, TMEM33 / Fold change vs veh, TMEM33 / RFU, WDR75 / Fold change vs veh, WDR75 / RFU, AHCTF1 / Fold change vs veh, AHCTF1 / RFU, TFRC / Fold change vs veh, TFRC / RFU, ZDHHC17 / Fold change vs veh, ZDHHC17 / RFU, NOM1 / Fold change vs veh, NOM1 / RFU, ARL8B / Fold change vs veh, ARL8B / RFU, ZBTB11 / Fold change vs veh, ZBTB11 / RFU, TAMM41 / Fold change vs veh, TAMM41 / RFU, KIAA1704 /// LOC100996395 / Fold change vs veh, KIAA1704 /// LOC100996395 / RFU, ING1 / Fold change vs veh, ING1 / RFU, TRMT61B / Fold change vs veh, TRMT61B / RFU, FUBP3 / Fold change vs veh, FUBP3 / RFU, TP53 / Fold change vs veh, TP53 / RFU, TNKS2 / Fold change vs veh, TNKS2 / RFU, ZFP14 / Fold change vs veh, ZFP14 / RFU, ACTR2 / Fold change vs veh, ACTR2 / RFU, PPP3R1 / Fold change vs veh, PPP3R1 / RFU, PIK3R1 / Fold change vs veh, PIK3R1 / RFU, HNRNPA1 / Fold change vs veh, HNRNPA1 / RFU, RNF170 / Fold change vs veh, RNF170 / RFU, ZNF28 / Fold change vs veh, ZNF28 / RFU, RNGTT / Fold change vs veh, RNGTT / RFU, OGT / Fold change vs veh, OGT / RFU, BRD1 / Fold change vs veh, BRD1 / RFU, MARS / Fold change vs veh, MARS / RFU, ZNF655 / Fold change vs veh, ZNF655 / RFU, FAHD1 / Fold change vs veh, FAHD1 / RFU, BDP1 / Fold change vs veh, BDP1 / RFU, LRRCC1 / Fold change vs veh, LRRCC1 / RFU, ARID1A / Fold change vs veh, ARID1A / RFU, ZNF146 / Fold change vs veh, ZNF146 / RFU, ZNF330 / Fold change vs veh, ZNF330 / RFU, GPN3 / Fold change vs veh, GPN3 / RFU, C9orf123 / Fold change vs veh, C9orf123 / RFU, N4BP2L2 / Fold change vs veh, N4BP2L2 / RFU, ARFIP1 / Fold change vs veh, ARFIP1 / RFU, FAM179B / Fold change vs veh, FAM179B / RFU, BCL10 / Fold change vs veh, BCL10 / RFU, UHRF1BP1L / Fold change vs veh, UHRF1BP1L / RFU, BET1 / Fold change vs veh, BET1 / RFU, CNOT2 / Fold change vs veh, CNOT2 / RFU, ZNF268 / Fold change vs veh, ZNF268 / Fold change vs veh, ZNF507 / RFU, DGCR2 / Fold change vs veh, DGCR2 / RFU, WDSUB1 / Fold change vs veh, WDSUB1 / Fold change vs veh, HSP90B1 /// MIR3652 / RFU, ADSS / Fold change vs veh, ADSS / RFU, GK / Fold change vs veh, GK / RFU, ZNF148 / Fold change vs veh, ZNF148 / RFU, TAF9 / Fold change vs veh, TAF9 / RFU, SLC1A5 / Fold change vs veh, SLC1A5 / RFU, SLMO2 / Fold change vs veh, SLMO2 / RFU, ABCC4 / Fold change vs veh, ABCC4 / RFU, LOC101060439 /// RAP1B / Fold change vs veh, LOC101060439 /// RAP1B / RFU, RFX7 / Fold change vs veh, RFX7 / RFU, GTPBP10 / Fold change vs veh, GTPBP10 / RFU, CNEP1R1 / Fold change vs veh, CNEP1R1 / RFU, BIVM-ERCC5 /// ERCC5 / Fold change vs veh, BIVM-ERCC5 /// ERCC5 / RFU, ILF3 / Fold change vs veh, ILF3 / RFU 11762660_at / Fold change /veh 11762660_at / RFU VCAN (11757783_s_at) / Fold change /veh VCAN (11757783_s_at) / RFU DDX43 (11728927_at) / Fold change /veh DDX43 (11728927_at) / RFU KRT8 (11758188_x_at) / Fold change /veh KRT8 (11758188_x_at) / RFU NKD1 (11759106_at) / Fold change /veh NKD1 (11759106_at) / RFU SRD5A1 (11742802_a_at) / Fold change /veh SRD5A1 (11742802_a_at) / RFU TPSAB1 /// TPSB2 (11721975_s_at) / Fold change /veh TPSAB1 /// TPSB2 (11721975_s_at) / RFU GSTM3 (11746129_a_at) / Fold change /veh GSTM3 (11746129_a_at) / RFU IL23R (11737362_x_at) / Fold change /veh IL23R (11737362_x_at) / RFU TMEM51 (11727254_a_at) / Fold change /veh TMEM51 (11727254_a_at) / RFU PIWIL2 (11732686_x_at) / Fold change /veh PIWIL2 (11732686_x_at) / RFU ORM1 (11744905_x_at) / Fold change /veh ORM1 (11744905_x_at) / RFU CCDC152 (11743942_at) / Fold change /veh CCDC152 (11743942_at) / RFU ECM1 (11717891_a_at) / Fold change /veh ECM1 (11717891_a_at) / RFU IL23R (11748794_a_at) / Fold change /veh IL23R (11748794_a_at) / RFU TNFAIP8L3 (11732012_x_at) / Fold change /veh TNFAIP8L3 (11732012_x_at) / RFU MBOAT4 (11741988_at) / Fold change /veh MBOAT4 (11741988_at) / RFU 11764193_at / Fold change /veh 11764193_at / RFU TMEM53 (11763286_at) / Fold change /veh TMEM53 (11763286_at) / RFU MAGEB2 (11727129_at) / Fold change /veh MAGEB2 (11727129_at) / RFU TMEM200A (11744735_a_at) / Fold change /veh TMEM200A (11744735_a_at) / RFU CCDC152 (11751479_a_at) / Fold change /veh CCDC152 (11751479_a_at) / RFU FAM211A (11726209_a_at) / Fold change /veh FAM211A (11726209_a_at) / RFU RGS16 (11746705_a_at) / Fold change /veh RGS16 (11746705_a_at) / RFU VCAN (11755009_s_at) / Fold change /veh VCAN (11755009_s_at) / RFU RHOB (11743442_s_at) / Fold change /veh RHOB (11743442_s_at) / RFU RGS16 (11720943_a_at) / Fold change /veh RGS16 (11720943_a_at) / RFU RGS16 (11720944_at) / Fold change /veh RGS16 (11720944_at) / RFU, VPS4B / Fold change vs veh, VPS4B / RFU, CREB1 / Fold change vs veh, CREB1 / RFU, DNAJC13 / Fold change vs veh, DNAJC13 / RFU, GNAQ / Fold change vs veh, GNAQ / RFU, CDK5R1 / Fold change vs veh, CDK5R1 / RFU, ZRANB3 / Fold change vs veh, ZRANB3 / RFU, CUL4A / Fold change vs veh, CUL4A / RFU, CCNY / Fold change vs veh, CCNY / RFU, UFL1 / Fold change vs veh, UFL1 / RFU, COG3 / Fold change vs veh, COG3 / RFU, DIAPH2 / Fold change vs veh, DIAPH2 / RFU, SKA2 / Fold change vs veh, SKA2 / RFU, AFF3 / Fold change vs veh, AFF3 / RFU, LMF1 / Fold change vs veh, LMF1 / RFU, IPO11 / Fold change vs veh, IPO11 / RFU, DFFB / Fold change vs veh, DFFB / RFU, FOXP1 / Fold change vs veh, FOXP1 / RFU, CARD8 / Fold change vs veh, CARD8 / RFU, STRN3 / Fold change vs veh, STRN3 / RFU, ADK / Fold change vs veh, ADK / RFU, RASSF2 / Fold change vs veh, RASSF2 / RFU, WIPF1 / Fold change vs veh, WIPF1 / RFU, LARP1B / Fold change vs veh, LARP1B / RFU, RASA1 / Fold change vs veh, RASA1 / RFU, RB1 / Fold change vs veh, RB1 / RFU, PPFIA1 / Fold change vs veh, PPFIA1 / RFU, MAT2A / Fold change vs veh, MAT2A / RFU, CCT5 / Fold change vs veh, CCT5 / RFU, WDR92 / Fold change vs veh, WDR92 / RFU, CUX1 / Fold change vs veh, CUX1 / RFU, TTC7A / Fold change vs veh, TTC7A / RFU, TMEM135 / Fold change vs veh, TMEM135 / RFU, DEPTOR / Fold change vs veh, DEPTOR / RFU, CPM / Fold change vs veh, CPM / RFU, DNAJB6 / Fold change vs veh, DNAJB6 / RFU, CACNA2D3 / Fold change vs veh, CACNA2D3 / RFU, DTX4 / Fold change vs veh, DTX4 / RFU, TFCP2 / Fold change vs veh, TFCP2 / RFU, GMCL1 /// GMCL1P1 / Fold change vs veh, GMCL1 /// GMCL1P1 / RFU, AEBP2 / Fold change vs veh, AEBP2 / RFU, SNHG1 /// SNORD22 /// SNORD25 /// SNORD26 /// SNORD27 /// SNORD28 /// SNORD29 /// SNORD31 / Fold change vs veh, SNHG1 /// SNORD22 /// SNORD25 /// SNORD26 /// SNORD27 /// SNORD28 /// SNORD29 /// SNORD31 / Fold change (Aza/veh), C12orf56 (ProbeSet 11735607_a_at) / Fold change (ACY-1035/veh), C12orf56 (ProbeSet 11735607_a_at) / Fold change (Aza/veh), FGFR1OP (ProbeSet 11751329_s_at) / Fold change (ACY-1035/veh), FGFR1OP (ProbeSet 11751329_s_at) / Fold change (Aza/veh), VPS36 (ProbeSet 11739960_a_at) / Fold change (ACY-1035/veh), VPS36 (ProbeSet 11739960_a_at) / RFU SYPL1 (11715823_x_at) / Fold change /veh SYPL1 (11715823_x_at) / RFU IGFBP7 (11715501_s_at) / Fold change /veh IGFBP7 (11715501_s_at) / RFU REEP3 (11722064_at) / Fold change /veh REEP3 (11722064_at) / RFU IGLL1 (11728026_x_at) / Fold change /veh IGLL1 (11728026_x_at): dose or concentration left out as unconfirmed. The following applies: ProbeSet 11728443_a_at; LIST B.

As for `Nc1ccc(-c2cccs2)cc1NC(=O)c1ccc2c(c1)cc(C1CC1)n2CCN1CCOCC1` [ACY-1035], the “RFU, TAOK1” value amounted to 54.83 RFU.
